Values quoted from earlier work, collected in US20220340870A1, “FUNCTIONAL NEUROMODULATORY ASSEMBLOIDS” (The Board of Trustees of the Leland Stanford Junior …, priority 2019, published 2022).
pKd: −log10 of the molar value.

Molecular target: Smo (Homo sapiens, UniProt Q99835)
Conditions: interacting with the Smo heptahelical domain

Smo, sequence (Q99835 28-787): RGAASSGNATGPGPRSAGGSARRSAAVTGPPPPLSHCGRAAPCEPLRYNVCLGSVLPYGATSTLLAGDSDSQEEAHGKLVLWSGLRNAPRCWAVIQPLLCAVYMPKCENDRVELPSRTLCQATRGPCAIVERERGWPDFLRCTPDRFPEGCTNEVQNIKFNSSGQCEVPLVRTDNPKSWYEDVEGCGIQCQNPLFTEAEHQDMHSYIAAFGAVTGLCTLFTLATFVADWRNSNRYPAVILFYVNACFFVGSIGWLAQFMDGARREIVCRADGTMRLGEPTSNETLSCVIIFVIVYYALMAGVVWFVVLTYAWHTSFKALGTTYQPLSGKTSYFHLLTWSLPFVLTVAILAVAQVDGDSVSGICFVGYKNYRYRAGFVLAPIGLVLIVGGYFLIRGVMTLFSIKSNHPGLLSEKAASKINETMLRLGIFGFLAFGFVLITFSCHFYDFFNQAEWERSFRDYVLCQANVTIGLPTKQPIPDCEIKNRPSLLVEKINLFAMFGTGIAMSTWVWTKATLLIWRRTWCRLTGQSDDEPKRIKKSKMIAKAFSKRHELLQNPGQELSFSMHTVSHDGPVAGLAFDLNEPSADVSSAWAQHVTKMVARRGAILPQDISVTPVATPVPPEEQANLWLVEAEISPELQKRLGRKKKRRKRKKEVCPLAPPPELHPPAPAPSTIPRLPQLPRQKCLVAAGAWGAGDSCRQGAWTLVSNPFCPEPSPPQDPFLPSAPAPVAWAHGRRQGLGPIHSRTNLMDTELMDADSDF

pKd: 7.23
Compound: CNC1CCC(N(Cc2cccc(-c3ccncc3)c2)C(=O)c2sc3ccccc3c2Cl)CC1 (stereo not shown) [SAG]
